Results as given in US8815893B2, “Hetarylaminonaphthyridines” (Merck Patent GmbH, priority 2010, dated 2014).

Assays:
[1] = tested on: lung epithelial cell line Mv1Lu; test: Cellular assay for TGF-beta receptor I kinase inhibitors: elimination of TGF-beta-mediated growth inhibition (example 13); assay type: cell-based; details: 48 h; Mv1Lu cells, 1 ng/ml TGF-beta, 0.5% FCS, two days, Crystal Violet staining; read-out: TβR activity (example 13)
Experimental: Cellular Assay for Testing TGF-Beta Receptor I Kinase Inhibitors
As an example, the ability of the inhibitors to eliminate TGF-beta-mediated growth inhibition was tested. Cells of the lung epithelial cell line Mv1Lu were sown in a defined cell density in a 96-well microtiter plate and cultivated overnight under standard conditions. Next day, the medium was replaced by medium which comprises 0.5% of FCS and 1 ng/ml of TGF-beta, and the test substances were added in defined concentrations, generally in the form of dilution series with 5 fold steps. The concentration of the solvent DMSO was constant at 0.5%. After a further two days, Crystal Violet staining of the cells was carried out. After extraction of the Crystal Violet from the fixed cells, the absorption was measured spectrophotometrically at 550 nm. It could be used as a quantitative measure of the adherent cells present and thus of the cell proliferation during the culture.

GST-ALK5 = target: T1, GST-ALK5 (Homo sapiens, UniProt P36897); test: In-vitro (enzyme) kinase assay, 384-well flashplate (example 14); assay type: biochemical; details: GST-ALK5, GST-SMAD2 substrate, 33P-ATP flashplate, 30° C. 45 min; IC50 classes; read-out: TβR activity (example 14)
T1 sequence (P36897 34-503): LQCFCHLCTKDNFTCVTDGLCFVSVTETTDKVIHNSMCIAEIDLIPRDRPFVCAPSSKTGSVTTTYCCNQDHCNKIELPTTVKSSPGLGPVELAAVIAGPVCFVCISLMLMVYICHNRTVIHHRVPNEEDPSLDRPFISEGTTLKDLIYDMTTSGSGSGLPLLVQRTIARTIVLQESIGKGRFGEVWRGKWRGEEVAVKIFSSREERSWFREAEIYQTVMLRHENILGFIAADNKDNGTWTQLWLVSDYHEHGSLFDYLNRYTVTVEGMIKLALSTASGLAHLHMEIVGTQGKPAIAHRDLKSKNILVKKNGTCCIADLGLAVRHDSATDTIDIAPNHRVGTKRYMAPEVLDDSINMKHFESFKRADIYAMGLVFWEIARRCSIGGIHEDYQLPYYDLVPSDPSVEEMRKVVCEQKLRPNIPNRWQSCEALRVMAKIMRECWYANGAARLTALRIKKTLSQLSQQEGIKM
Experimental: In-Vitro (Enzyme) Assay for Determination of the Efficacy of Inhibitors of the Inhibition of TGF-Beta-Mediated Effects
The kinase assay was carried out as 384-well flashplate assay. 31.2 nM of GST-ALK5, 439 nM of GST-SMAD2 and 3 mM of ATP (with 0.3 μCi of ^33P-ATP/well) were incubated in a total volume of 35 μl (20 mM of HEPES, 10 mM of MgCl2, 5 mM of MnCl2, 1 mM of DTT, 0.1% of BSA, pH 7.4) without or with test substance (5-10 concentrations) at 30° C. for 45 min. The reaction was stopped using 25 μl of 200 mM EDTA solution, filtered with suction at room temperature after 30 min, and the wells were washed with 3 times 100 μl of 0.9% NaCl solution. Radioactivity was measured in the TopCount. The IC50 values were calculated using RS1. Above and below, all temperatures were indicated in ° C.

SMILES	IC50 (GST-ALK5)	IC50 [1]
CN(C)CC(=O)Nc1cc(Nc2cc(-c3cc(Cl)ccc3F)nc3ncccc23)ncn1 [compound 112]	< 100 nM	< 100 nM
CN(C)c1cc(Nc2cc(-c3cc(Cl)ccc3F)nc3ncccc23)ncn1 [compound 121]	< 100 nM	< 100 nM
Fc1ccc(Cl)cc1-c1cc(-n2ncc3cnccc32)c2cccnc2n1 [compound 73]	< 100 nM	< 100 nM
CC(C)(C)OC(=O)NCC(=O)Nc1cc(Nc2cc(-c3cc(Cl)ccc3F)nc3ncccc23)ncn1 [compound 109]	< 100 nM	< 100 nM
Cc1cccc(-c2cc(Nc3ccnc(NC(N)=O)c3)c3cccnc3n2)n1 [compound 85]	< 100 nM	100 to 1000 nM
Fc1ccccc1-c1cc(-n2ccc3cncnc32)c2cccnc2n1 [compound 96]	100 to 1000 nM	1000 to 10000 nM
CN(C)CCNc1cc(Nc2cc(-c3cc(Cl)ccc3F)nc3ncccc23)ncn1 [compound 120]	100 to 1000 nM	100 to 1000 nM
CN(C)CCNC(=O)c1cnccc1Nc1cc(-c2cc(Cl)ccc2F)nc2ncccc12 [compound 72]	< 100 nM	< 100 nM
NCCC(=O)Nc1cc(Nc2cc(-c3cc(Cl)ccc3F)nc3ncccc23)ncn1 [compound 94]	< 100 nM	< 100 nM
O=C(CCN1CCNCC1)Nc1cc(Nc2cc(-c3cc(Cl)ccc3F)nc3ncccc23)ncn1 [compound 102]	> 10000 nM	> 10000 nM

Further lines, with some results ahead:

IC50 (GST-ALK5)	SMILES	IC50 [1]
> 10000 nM	CC(C)(C)OC(=O)NC(C)(C)C(=O)Nc1cc(Nc2cc(-c3cc(Cl)ccc3F)nc3ncccc23)ncn1 [compound 134]	> 10000 nM
> 10000 nM	Cc1cc(-c2cc(Nc3cc(N(C)C)ncn3)c3cccnc3n2)c(C)o1 [compound 145]	> 10000 nM
1000 to 10000 nM	CCN1CCC(Nc2cc(Nc3cc(-c4cc(Cl)ccc4F)nc4ncccc34)ncn2)CC1 [compound 127]	1000 to 10000 nM
100 to 1000 nM	CC(C)(N)C(=O)Nc1cc(Nc2cc(-c3cc(Cl)ccc3F)nc3ncccc23)ncn1 [compound 136]	100 to 1000 nM
> 10000 nM	CN(C)c1cc(Nc2cc(-c3cc(F)ccc3F)nc3ncccc23)ncn1 [compound 137]	> 10000 nM
< 100 nM	CC(C)(C)OC(=O)NCCCC(=O)Nc1cc(Nc2cc(-c3cc(Cl)ccc3F)nc3ncccc23)ncn1 [compound 131]	< 100 nM
1000 to 10000 nM	O=C(NCCN1CCCC1)c1cc(Nc2cc(-c3cc(F)ccc3F)nc3ncccc23)ccn1 [compound 122]	> 10000 nM
< 100 nM	Fc1ccc(F)c(-c2cc(-n3ccc4cnccc43)c3cccnc3n2)c1 [compound 129]	100 to 1000 nM
